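In this assay, cells in 96-well plates receive the compound at five concentrations for 48 hours. Endpoints are linearly interpolated between the surrounding concentrations. At the TGI there is no net growth.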
Assays:
Assay in all cases: NCI-60 cell line screen, 48 h
PC-3 prostate = tested on: PC-3 prostate
TK-10 renal = tested on: TK-10 renal
UACC-62 melanoma = tested on: UACC-62 melanoma
HCT-116 colon = tested on: HCT-116 colon
HT29 colon = tested on: HT29 colon
KM12 colon = tested on: KM12 colon
MDA-MB-231 breast = tested on: MDA-MB-231 breast
OVCAR-8 ovarian = tested on: OVCAR-8 ovarian
U251 CNS = tested on: U251 CNS
UO-31 renal = tested on: UO-31 renal
HCT-15 colon = tested on: HCT-15 colon
LOX IMVI melanoma = tested on: LOX IMVI melanoma
EKVX NSCLC = tested on: EKVX NSCLC
HOP-62 NSCLC = tested on: HOP-62 NSCLC
SK-MEL-5 melanoma = tested on: SK-MEL-5 melanoma
NCI-H226 lung = tested on: NCI-H226 lung
CAKI-1 renal = tested on: CAKI-1 renal
HOP-92 NSCLC = tested on: HOP-92 NSCLC
SF-295 CNS = tested on: SF-295 CNS
M14 melanoma = tested on: M14 melanoma
A549 NSCLC = tested on: A549 NSCLC
RPMI-8226 leukemia = tested on: RPMI-8226 leukemia
BT-549 breast = tested on: BT-549 breast
OVCAR-4 ovarian = tested on: OVCAR-4 ovarian
SNB-75 CNS = tested on: SNB-75 CNS
NCI-H522 lung = tested on: NCI-H522 lung
T-47D breast = tested on: T-47D breast
CCRF-CEM leukemia = tested on: CCRF-CEM leukemia
SK-MEL-2 melanoma = tested on: SK-MEL-2 melanoma
MDA-MB-435 = tested on: MDA-MB-435
NCI/ADR-RES ovarian = tested on: NCI/ADR-RES ovarian
UACC-257 melanoma = tested on: UACC-257 melanoma
HL-60(TB) leukemia = tested on: HL-60(TB) leukemia
COLO 205 colon = tested on: COLO 205 colon
SR leukemia = tested on: SR leukemia
SN12C renal = tested on: SN12C renal
MOLT-4 leukemia = tested on: MOLT-4 leukemia
OVCAR-3 ovarian = tested on: OVCAR-3 ovarian
OVCAR-5 ovarian = tested on: OVCAR-5 ovarian
SW-620 colon = tested on: SW-620 colon
SK-MEL-28 melanoma = tested on: SK-MEL-28 melanoma
RXF 393 renal = tested on: RXF 393 renal
A498 renal = tested on: A498 renal
NCI-H460 lung = tested on: NCI-H460 lung
NCI-H23 lung = tested on: NCI-H23 lung
SNB-19 CNS = tested on: SNB-19 CNS
K-562 leukemia = tested on: K-562 leukemia
786-0 renal = tested on: 786-0 renal
ACHN renal = tested on: ACHN renal
HCC-2998 colon = tested on: HCC-2998 colon
IGROV1 ovarian = tested on: IGROV1 ovarian
MDA-N = tested on: MDA-N
SK-OV-3 ovarian = tested on: SK-OV-3 ovarian
MALME-3M melanoma = tested on: MALME-3M melanoma
MCF7 breast = tested on: MCF7 breast
DU-145 prostate = tested on: DU-145 prostate
HS 578T breast = tested on: HS 578T breast
SF-268 CNS = tested on: SF-268 CNS
SF-539 CNS = tested on: SF-539 CNS

Measured: TGI

CC[C@]1(Cc2ccc(OC)c(OC)c2)C2CC(C(=O)OC)ON2O[C@H](OCc2ccccc2)[C@@H]1OC(C)=O (some centres undefined)
66.1 µM: HL-60(TB) leukemia
not listed: HS 578T breast | SF-268 CNS | SF-539 CNS
> 100 µM: all other assays above

CC(C)(C)OC(=O)NCCC1CNc2ccccc21 (centres undefined)
not listed: LOX IMVI melanoma | NCI-H226 lung | CCRF-CEM leukemia | HL-60(TB) leukemia | SR leukemia | SN12C renal | SF-539 CNS
> 100 µM: all other assays above

CCOC(=O)/C(=C\c1cn(C(C)=O)c2ccccc12)P(C)(=O)OCC (centres undefined)
66.1 µM: SK-OV-3 ovarian
50.5 µM: SF-268 CNS
67.2 µM: NCI-H522 lung
94.3 µM: HCC-2998 colon
66.8 µM: HOP-92 NSCLC
45.1 µM: SF-539 CNS
81.7 µM: MDA-MB-231 breast
36.5 µM: SNB-75 CNS
61.3 µM: BT-549 breast
not listed: TK-10 renal | LOX IMVI melanoma | NCI-H226 lung | OVCAR-4 ovarian | UACC-257 melanoma | RXF 393 renal | NCI-H460 lung | NCI-H23 lung | HS 578T breast
> 100 µM: all other assays above

O=C1/C(=C/C=C/c2ccccc2)N=C(c2ccccc2)N1c1ccc(S(=O)(=O)Nc2nccs2)cc1
49.8 µM: HT29 colon
59.3 µM: U251 CNS
55.1 µM: LOX IMVI melanoma
29.9 µM: UO-31 renal
55.5 µM: NCI-H226 lung
35.5 µM: COLO 205 colon
86.6 µM: SK-MEL-2 melanoma
39.8 µM: SF-268 CNS
34.5 µM: ACHN renal
44.5 µM: IGROV1 ovarian
68.2 µM: RPMI-8226 leukemia
61.7 µM: UACC-62 melanoma
30.1 µM: RXF 393 renal
54 µM: SK-MEL-5 melanoma
85.2 µM: SK-OV-3 ovarian
45.9 µM: SF-539 CNS
48.2 µM: OVCAR-3 ovarian
61.4 µM: BT-549 breast
36.6 µM: NCI-H522 lung
63.8 µM: NCI-H23 lung
84.7 µM: EKVX NSCLC
not listed: MDA-MB-231 breast | SK-MEL-28 melanoma | HCC-2998 colon
> 100 µM: all other assays above

Source: PubChem BioAssay (NCI)
